In patent publication US11147272B2, “Pyridone compounds and agricultural and horticultural fungicides comprising the same as active ingredients” (MITSUI CHEMICALS AGRO, INC., priority 2017, dated 2021):

What was measured:
[1] = system: Magnaporthe grisea; assay: whole plant or invertebrate; type: in vivo; settings: Blast on rice; control value class
[2] = system: Alternaia brassicicola; assay: Test Example C: Alternaria sooty spot on cabbage; type: in vivo; settings: Alternaria sooty spot on cabbage; control value class
From the text: Seeds of a test plant (cabbage variety: Shikidori) were planted and cultivated until the cotyledons extended.
<Control Value> Control value=100{1−(n/3)}

[3] = system: Puccinia recondita; assay: Test Example E: Brown rust on wheat; type: in vivo; settings: Brown rust on wheat; control value class
[4] = system: Phytophthora infestans; assay: whole plant or invertebrate; type: in vivo; settings: Late blight on tomato; control value class
[5] = system: Botrytis cinerea; assay: Test Example B: Gray mold on tomato; settings: Gray mold on tomato; control value class
[6] = system: Plasmopara viticola; assay: Test Example G: Downy mildew on vine; settings: Downy mildew on vine; 250 ppm spray, 7 to 10 days after inoculation
[7] = system: Colletotrichum orbiculare; assay: Test Example H: Anthracnose on cucumber; settings: Anthracnose on cucumber; 250 ppm spray, 6 to 10 days after inoculation
[8] = system: Blumeria graminis f. sp. hordei; assay: Test Example D: Powdery mildew on barley; settings: Powdery mildew on barley; control value class

| SMILES | Test A control value [1] | Test C control value [2] | Test E control value [3] | Test F control value [4] | Test B control value [5] | Test G control value [6] | Test H control value [7] | Test D control value [8] |
| --- | --- | --- | --- | --- | --- | --- | --- | --- |
| CCc1ccc(=O)n(CC)c1-c1ccc(F)cc1Cl [compound 185] | L (50% or less control value) | H (more than 50% control value) | H (more than 50% control value) | L (50% or less control value) | H (more than 50% control value) | L (50% or less control value) | L (50% or less control value) | H (more than 50% control value) |
| CCc1cc(Br)c(=O)n(CC)c1-c1ccc(F)cc1Cl [compound 186] | H (more than 50% control value) | H (more than 50% control value) | H (more than 50% control value) | L (50% or less control value) | H (more than 50% control value) | H (more than 50% control value) | H (more than 50% control value) | H (more than 50% control value) |
| CCc1cc(Cl)c(=O)n(CC)c1-c1ccc(F)cc1Cl [compound 189] | H (more than 50% control value) | H (more than 50% control value) | H (more than 50% control value) | L (50% or less control value) | H (more than 50% control value) | H (more than 50% control value) | H (more than 50% control value) | H (more than 50% control value) |
| CCCc1ccc(=O)n(CC)c1-c1ccc(F)cc1Cl [compound 190] | H (more than 50% control value) | H (more than 50% control value) | H (more than 50% control value) | L (50% or less control value) | H (more than 50% control value) | H (more than 50% control value) | L (50% or less control value) | H (more than 50% control value) |
| CCCc1cc(Cl)c(=O)n(CC)c1-c1ccc(F)cc1Cl [compound 191] | H (more than 50% control value) | H (more than 50% control value) | H (more than 50% control value) | L (50% or less control value) | H (more than 50% control value) | H (more than 50% control value) | H (more than 50% control value) | H (more than 50% control value) |
| CCCc1cc(Br)c(=O)n(CC)c1-c1ccc(F)cc1Cl [compound 192] | H (more than 50% control value) | H (more than 50% control value) | H (more than 50% control value) | L (50% or less control value) | H (more than 50% control value) | L (50% or less control value) | H (more than 50% control value) | H (more than 50% control value) |
| CCn1c(-c2ccc(O)cc2)c(CC(C)C)ccc1=O [compound 193] | L (50% or less control value) | H (more than 50% control value) | L (50% or less control value) | L (50% or less control value) | L (50% or less control value) | L (50% or less control value) | L (50% or less control value) | L (50% or less control value) |
| CCn1c(-c2ccc(OC)cc2)c(CC(C)C)ccc1=O [compound 194] | H (more than 50% control value) | L (50% or less control value) | H (more than 50% control value) | L (50% or less control value) | H (more than 50% control value) | L (50% or less control value) | L (50% or less control value) | H (more than 50% control value) |
| CCn1c(-c2ccc(OC)cc2)c(CC(C)C)cc(Cl)c1=O [compound 195] | H (more than 50% control value) | H (more than 50% control value) | H (more than 50% control value) | L (50% or less control value) | H (more than 50% control value) | L (50% or less control value) | H (more than 50% control value) | H (more than 50% control value) |
| CCn1c(-c2ccc(OC)cc2)c(CC(C)C)cc(Br)c1=O [compound 196] | H (more than 50% control value) | H (more than 50% control value) | H (more than 50% control value) | L (50% or less control value) | H (more than 50% control value) | L (50% or less control value) | H (more than 50% control value) | L (50% or less control value) |
| C=C(c1cc(Cl)c(=O)n(CC)c1-c1c(F)cccc1F)C(C)C [compound 197] | H (more than 50% control value) | H (more than 50% control value) | H (more than 50% control value) | L (50% or less control value) | H (more than 50% control value) | H (more than 50% control value) | H (more than 50% control value) | H (more than 50% control value) |
| CCn1c(-c2c(F)cccc2F)c(C(C)C(C)C)cc(Cl)c1=O (stereo not shown) [compound 198] | H (more than 50% control value) | H (more than 50% control value) | H (more than 50% control value) | L (50% or less control value) | H (more than 50% control value) | L (50% or less control value) | H (more than 50% control value) | H (more than 50% control value) |
| CCn1c(-c2ccc(F)cc2Br)c(CC(C)C)ccc1=O [compound 199] | H (more than 50% control value) | H (more than 50% control value) | H (more than 50% control value) | H (more than 50% control value) | H (more than 50% control value) | H (more than 50% control value) | H (more than 50% control value) | H (more than 50% control value) |
| CCn1c(-c2ccc(F)cc2Br)c(CC(C)C)cc(Cl)c1=O [compound 200] | H (more than 50% control value) | H (more than 50% control value) | H (more than 50% control value) | H (more than 50% control value) | H (more than 50% control value) | H (more than 50% control value) | H (more than 50% control value) | H (more than 50% control value) |
